Measured values reported in patent publication US20200190073A1, “SUBSTITUTED SUCCINIMIDE DERIVATIVES AS PESTICIDES” (BASF SE, priority 2017, published 2020).
Where two headings read alike, the source gives them in different places.

Tests used:
Assay type in all cases: in vivo
[1] = tested on: Vetch Aphid (Megoura viciae); experiment: B.3 Vetch aphid, broad bean leaf disks; conditions: foliar, 120 h, read-out: mortality in comparison with untreated controls
How it was run: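 Broad bean leaf disks sprayed with compounds in 25% DMSO/water at various concentrations, two replicates, then air-dried and infested with 5-8 adult Megoura viciae (contact/systemic exposure). After 5 days at about 23±1 °C and 50±5% RH, mortality and fecundity scored visually.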

[2] = tested on: Red Spider Mite (Tetranychus kanzawai); experiment: B.9 Red spider mite, sprayed cowpea beans; conditions: read-out: mortality in comparison with untreated controls
How it was run: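 Potted cowpea beans aged 4-5 days were sprayed with compound in 1:1 water:acetone plus 0.01% surfactant, air dried, then infested with ≥30 mites. Kept at about 25-27° C and 50-60% relative humidity; percent mortality scored 72 h after treatment.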

[3] = tested on: Southern Armyworm (Spodoptera eridania); experiment: B.10 Southern armyworm, sprayed lima bean plants; conditions: 96 h, read-out: mortality in comparison with untreated controls
Method: B.10 Southern Armyworm (Spodoptera eridania)
The active compounds were formulated in cyclohexanone as a 10,000 ppm solution supplied in tubes. The tubes were inserted into an automated electrostatic sprayer equipped with an atomizing nozzle and they served as stock solutions for which lower dilutions were made in 50% acetone:50% water (v/v). A nonionic surfactant (Kinetic®) was included in the solution at a volume of 0.01% (v/v).
Lima bean plants (variety Sieva) were grown 2 plants to a pot and selected for treatment at the 1st true leaf stage. Test solutions were sprayed onto the foliage by an automated electrostatic plant sprayer equipped with an atomizing spray nozzle. The plants were dried in the sprayer fume hood and then removed from the sprayer. Each pot was placed into perforated plastic bags with a zip closure. About 10 to 11 armyworm larvae were placed into the bag and the bags zipped closed. Test plants were maintained in a growth room at about 250C and about 20-40% relative humidity for 4 days, avoiding direct exposure to fluorescent light (24 hour photoperiod) to prevent trapping of heat inside the bags. Mortality and reduced feeding were assessed 4 days after treatment, compared to untreated control plants.

[4] = tested on: Neotropical Brown Stink Bug (Euschistus heros); experiment: B.12 Neotropical brown stink bug, dipped pole bean; conditions: 120 h, read-out: mortality in comparison with untreated controls
How it was run: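 Contact assay: pole bean sections dipped in compound in 50% acetone/water, air-dried, then exposed to 5 adult Euschistus heros per beaker, eight replicates. Held 5 days at 23±1 °C, 50±5% RH before visual mortality scoring.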

[5] = tested on: Silverleaf Whitefly (Bemisia argentifolii); experiment: CE.4 Silverleaf whitefly, comparative test; conditions: 72 h, read-out: % mortality in comparison to untreated controls
Method: (§1) The tables show % mortality in comparison to untreated controls.
CE.4 Silverleaf Whitefly (Bemisia argentifolii)
The active compounds were formulated in 50:50 acetone:water (vol:vol) and 100 ppm Kinetica™ surfactant.
Selected cotton plants were grown to the cotyledon state (one plant per pot). The cotyledons were dipped into the test solution to provide complete coverage of the foliage and placed in a well-vented area to dry. Each pot with treated seedling was placed in a plastic cup and 10 to 12 whitefly adults (approximately 3-5 day old) were introduced. The insects were collected using an aspirator and a Tygon® tubing connected to a barrier pipette tip. The tip, containing the collected insects, was then gently inserted into the soil containing the treated plant, allowing insects to crawl out of the tip to reach the foliage for feeding. The cups were covered with a reusable screened lid. Test plants were maintained in the holding room at about 25° C. and about 20-40% relative humidity for 3 days avoiding direct exposure to the fluorescent light (24 hour photoperiod) to prevent trapping of heat inside the cup. Mortality was assessed 3 days after treatment of the plants.

[6] = tested on: Cowpea Aphid (Aphis Craccivora); experiment: CE.1 Cowpea aphid, comparative test; conditions: read-out: % mortality in comparison to untreated controls
Method: as §1
CE.1 Cowpea Aphid (Aphis Craccivora)
Potted cowpea plants colonized with approximately 100-150 aphids of various stages were sprayed after the pest population has been recorded. Population reduction was assessed after 24, 72, and 120 hours.

[7] = tested on: Rice Brown Plant Hopper (Nilaparvata lugens); experiment: CE.2 Rice brown plant hopper, comparative test; conditions: 10 ppm, after 72 hours, read-out: % mortality in comparison to untreated controls
Method: as §1
CE.2 Rice Brown Plant Hopper (Nilaparvata lugens)
Rice seedlings were cleaned and washed 24 hours before spraying. The active compounds were formulated in 50:50 acetone:water (vol:vol) and 0.1% vol/vol surfactant (EL 620) was added. Potted rice seedlings were sprayed with 5 ml test solution, air dried, placed in cages and inoculated with 10 adults. Treated rice plants were kept at about 28-29° C. and relative humidity of about 50-60%. Percent mortality was recorded after 72 hours.

[8] = tested on: Orchid Thrips (Dichromothrips Corbetti); experiment: CE.3 Orchid thrips, comparative test; conditions: 96 h, 10 ppm, after 4 days, read-out: % mortality in comparison to untreated controls
How it was run: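 Orchid flower petals were dipped in 300 ppm compound in 1:1 acetone:water plus 0.01% v/v surfactant and dried, then caged with 10-15 lab-colony adults. Live thrips were counted after 4 days, and % mortality was derived from pre-treatment numbers relative to untreated controls.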

SMILES	mortality at 2500 ppm [1]	mortality at 300 ppm ([2]; 72 h)	mortality at 10 ppm [3]	mortality at 500 ppm [4]	mortality at 10 ppm [5]	mortality at 300 ppm [3]	mortality at 10 ppm [6]	mortality at 2500 ppm ([1]; 2500 ppm, sprayed leaf disks, 5 days)	mortality at 300 ppm ([2]; 300 ppm, 72 hours after treatment)	mortality at 10 ppm ([6]; 10 ppm, sprayed cowpea plants)	mortality at 10 ppm [7]	mortality at 10 ppm [8]
CN1C(=O)CC(NC(=O)c2ccc(C3=NOC(c4cc(Cl)c(F)c(Cl)c4)(C(F)(F)F)C3)cc2Cl)C1=O (stereo not drawn) [Compound I-1-2, 2-Chloro-4-[5-(3,5-dichloro-4-fluoro-phenyl)-5-(trifluoromethyl)-4H-isoxazol-3-yl]-N-(1-methyl-2,5-dioxo-pyrrolidin-3-yl)benzamide]	> 75%	> 75%	> 75%	> 75%	88%	–	–	–	–	–	–	–
CCN1C(=O)CC(NC(=O)c2ccc(C3=NOC(c4cc(Cl)c(F)c(Cl)c4)(C(F)(F)F)C3)cc2Cl)C1=O (stereo not drawn) [Compound I-1-3]	> 75%	> 75%	> 75%	–	75%	–	–	–	–	–	–	–
CN1C(=O)CC(NC(=O)c2ccc(C3=NOC(c4cc(Cl)c(F)c(Cl)c4)(C(F)(F)F)C3)c3c2CCC3)C1=O (stereo not drawn) [Compound I-1-10]	> 75%	> 75%	> 75%	> 75%	–	–	–	–	–	–	–	–
CN1C(=O)C[C@@H](NC(=O)c2ccc(C3=NOC(c4cc(Cl)c(F)c(Cl)c4)(C(F)(F)F)C3)cc2Cl)C1=O (stereo partly drawn) [Compound I-1-13]	> 75%	> 75%	> 75%	> 75%	–	> 75%	90%	–	–	–	–	–
CCN1C(=O)C[C@@H](NC(=O)c2ccc(C3=NOC(c4ccc(F)c(Cl)c4)(C(F)(F)F)C3)cc2Cl)C1=O (stereo partly drawn) [Compound I-1-53]	–	–	–	–	–	–	–	> 75%	> 75%	100%	75%	100%
